{
  "source": "patent US20090227671A1",
  "about": "“Prevention and treatment of atherosclerosis with lithospermate B” (Industry-Academic Cooperation Foundation, priority 2005, published 2009)",
  "key": {"[1]": {"test_system": "vascular smooth muscle cells", "experiment": "Cytotoxicity of LAB in VSMC", "assay_type": "cell-based, Sprague-Dawley rats", "conditions": "LAB up to 30 μM", "protocol": "The VSMC was treated in a culture medium not containing serum for 24 hrs prior to treatment with PDGF-BB, and the reaction according to the presence or absence of PDGF-BB was analyzed after pretreating with LAB or other reagents.\nTo investigate whether LAB decreases the proliferation of VSMC induced by PDGF-BB an experiment was performed as follows. The VSMC was placed in a culture medium not containing serum for 24 hrs to inhibit cell proliferation, and then pretreated with LAB with various concentrations of 1, 5, 10, 20, 30 μM and treated with PDGF-BB for 24 hrs. The extent of VSMC proliferation was compared with that of control as stated above via LDH and MTT assays (FIG. 1)."}, "[2]": {"test_system": "vascular smooth muscle cells", "experiment": "VSMC migration induced by PDGF-BB (modified Boyden chamber)", "assay_type": "cell-based, Sprague-Dawley rats", "conditions": "pretreated with LAB, various concentrations; 16 hrs", "protocol": "The migration of VSMC with 8 μm of pores was measured by using modified Boyden chamber method [Brown C, Pan X, Hassid A. Nitric oxide and C-type atrial natriuretic peptide stimulate primary aortic smooth muscle cell migration via a cGMP-dependent mechanism: relationship to microfilament dissociation and altered cell morphology. Circ Res. Apr. 2 1999; 84(6):655-667], which utilizes collagen-coated transwell tissue culture inserts consisting of polycarbonate membrane. 3.0×10^6 cells/mL of the above vascular smooth muscle cells were allowed to float in a culture medium without serum, treated with LAB with various concentrations and then cultured at 37° C. for 30 min. Then, the cells were treated with either 0.5 mL DMEM without serum or 0.5 mL DMEM without serum along with PDGF-BB 10 ng/mL and then placed in the lower part of a chamber. 100 μL of the folating materials of the above cells (final 3.0×10^5 cells/well) was added to the upper part of the chamber and cultured at 37° C. for 16 hrs. The cells were then fixed, dyed with hematoxylin, and filters were dried and developed.\nIt is known that […] plays an important role in proliferation of VSMC as well as development of atherosclerosis. To investigate whether LAB decreases the migration of VSMC induced by PDGF-BB, an experiment was performed as follows by using the aforementioned modified Boyden chamber method."}, "[3]": {"test_system": "intracellular reactive oxygen species", "experiment": "Intracellular reactive oxygen species in VSMC (DCF fluorescence)", "assay_type": "cell-based, Sprague-Dawley rats", "conditions": "LAB pretreatment 1 hr", "protocol": "The amount of reactive oxygen species in cells was measured as described in the previous report [Hamaguchi A, Kim S, Izumi Y, et al. Contribution of extracellular signal-regulated kinase to angiotensin II-induced transforming growth factor-beta1 expression in vascular smooth muscle cells. Hypertension. July 1999; 34(1):126-131]. VSMC was cultured in a culture medium without serum for 24 hrs to stop cell proliferation and then pretreated with LAB with various concentrations of 1, 5, 10, 20, 30 μM for 1 hr. The cells were treated with either 10 ng/mL of PDGF-BB for 10 min or with 100 μM H2O2 for 1 min and then cultured in the presence of 5-(and-6)-chloromethyl-2′,7′-dichlorohydrofluorescein diacetate(CM-H2DCF-DA: Molecular Probes Inc., Eurogene, Oreg., USA) in the dark room for 10 min and cultured cells and generation of reactive oxygen species were observed by using fluorescent microscope.\nFirst, the amount of intracellular reactive oxygen species generated by PDGF-BB was measured by using peroxide-sensitive fluorophore DCF. As shown in FIG. 3A (B-1), the amount of intracellular reactive oxygen species generated by PDGF-BB evaluated with DCF fluorescence was 2.7 times greater. […] In this experiment, LAB was treated with PDGF-BB for 10 min. When LAB was pretreated, the amount of DCF fluorescence was decreased as compared to when it was treated only with PDGF-BB [FIG. 3A(A)]. […] Further, LAB decreased the activity of hydrogen peroxide, which increases the generation of intracellular reactive oxygen species, in proportion to its concentration (FIG. 3A(C))."}, "[4]": {"test_system": "common carotid arteries after balloon injury", "experiment": "Neointimal hyperplasia in balloon-injured carotid artery animal model", "assay_type": "in vivo, Sprague-Dawley rats", "conditions": "LAB 10 mg/kg/day from 2 days prior to PTA, compared with placebo", "from_the_text": "Two French Forgarty embolectomy catheters were inserted into white male Sprague-Dawley (300 g) through external carotid arteries, and blood vessels were intentionally damaged by moving catheters, which were swollen by adding a physiological saline solution, 3 times vertically within the common carotid thereby expanding blood vessels while shedding off the endothelial cells. A total of 30 rats were divided into 3 groups (10 rats/group) and used in this experiment: group 1 was not treated; group 2 was damaged with their blood vessels; and group 3 was treated with LAB and then damaged with their blood vessels. LAB (10 mg/kg/day) was injected intravenously for a period of 30 days (i.e., from 2 days prior to the blood vessel damage to 28 days after the blood vessel damage). The rats were sacrificed on the 28th day after the blood vessel damage by ablating carotid artery and it was fixed with 4% formaldehyde and then dyed with hematoxylineosin. The mid parts of the damaged blood vessel were cut into 2-4 parts and analyzed via computerized morphometry (SCN Image). […]\nWhite Sprague-Dawley rats were damaged by using percutaneous transluminal angioplastyas (‘PTA’) as stated above. […] On the 2oth day after the surgery the rats were sacrificed and the Intima-Media Thickness (‘IMT’) was measured."}, "[5]": {"experiment": "Acute toxicity due to oral administration in SD rats", "assay_type": "in vivo", "conditions": "SD, rat, in vivo, 1 g/kg; oral, single administration", "protocol": "(§1) Acute toxicity test was performed using 6 week old SPF SD rats. The SD rats were divided two per each group and each rat was orally administered once with LAB in the amount of 1 g/kg/1 mL, which was suspended in 0.5% methylcellulose. After the above administration, the rats were subjected to examination with regard to survival, clinical symptoms, change in body weight, and the like and also hematological examination, biochemical blood test. Further, autopsies were performed to observe abnormalities in abdominal organs."}, "SD rats": {"test_system": "SD rats", "experiment": "Acute toxicity due to oral administration in SD rats", "assay_type": "in vivo", "protocol": "as §1"}},
  "data": [
    {"compound": "O=C(/C=C/c1ccc(O)c2c1[C@H](C(=O)O[C@H](Cc1ccc(O)c(O)c1)C(=O)[O-])[C@@H](c1ccc(O)c(O)c1)O2)O[C@H](Cc1ccc(O)c(O)c1)C(=O)[O-].[Mg+2]", "note": "[LAB, lithospermate B]", "values": [
      {"measurement": "adverse reaction in VSMC", "setting": "[1]; highest concentration", "result": "no adverse reaction observed"},
      {"measurement": "cytotoxic activities", "setting": "[1]; data not shown", "result": "no cytotoxic activities observed"},
      {"measurement": "migration of VSMC induced by PDGF-BB", "setting": "[2]", "result": "decreased in proportion to the concentration"},
      {"measurement": "amount of intracellular reactive oxygen species generated by PDGF-BB", "setting": "[3]; 10 ng/mL PDGF-BB 10 min", "result": "decreased in proportion to the concentration"},
      {"measurement": "intracellular reactive oxygen species induced by hydrogen peroxide", "setting": "[3]; 100 μM H2O2 1 min", "result": "decreased"},
      {"measurement": "increase in Intima-Media Thickness (IMT)", "setting": "[4]", "result": "much low"},
      {"measurement": "LD50", "setting": "[5]", "result": "> 500", "unit": "mg/kg"},
      {"measurement": "dose without toxicity to rats", "setting": "SD rats; oral, single administration", "result": "up to 500 mg/kg"},
      {"measurement": "survival", "setting": "SD rats; single oral dose 1 g/kg in 0.5% methylcellulose", "result": "all experimental rats survived"},
      {"measurement": "clinical symptoms, toxicities and other abnormalities", "setting": "SD rats; single oral dose 1 g/kg, body weight, hematology, blood biochemistry, autopsy", "result": "no abnormal clinical symptoms, no toxicities and other abnormalities"}
    ]}
  ]
}
